We go through 24 molecules from patent US6875760B2 (Novo Nordisk A/S, priority 1999, dated 2005).

The target in this test is T1, human glucagon receptor (Homo sapiens, UniProt P47871).
T1 construct: expressed in transfected cells; host or cells: BHK (baby hamster kidney) cells
Put plainly: Glucagon Binding Assay (III). The settings on record: BHK cell membranes, WGA SPA beads, 125I-glucagon; read-out: Glu Bd Assay (III) IC50. A digest of the protocol:
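Non-specific binding was set with 500 nM glucagon in this SPA-type binding assay using WGA beads. The receptor source was a membrane preparation, kept on ice or at 4 °C, from BHK cells transfected with the human receptor. Scintillation counts were taken after 4 hours of shaking and 8–48 hours of settling.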

T1 sequence (P47871 26-477): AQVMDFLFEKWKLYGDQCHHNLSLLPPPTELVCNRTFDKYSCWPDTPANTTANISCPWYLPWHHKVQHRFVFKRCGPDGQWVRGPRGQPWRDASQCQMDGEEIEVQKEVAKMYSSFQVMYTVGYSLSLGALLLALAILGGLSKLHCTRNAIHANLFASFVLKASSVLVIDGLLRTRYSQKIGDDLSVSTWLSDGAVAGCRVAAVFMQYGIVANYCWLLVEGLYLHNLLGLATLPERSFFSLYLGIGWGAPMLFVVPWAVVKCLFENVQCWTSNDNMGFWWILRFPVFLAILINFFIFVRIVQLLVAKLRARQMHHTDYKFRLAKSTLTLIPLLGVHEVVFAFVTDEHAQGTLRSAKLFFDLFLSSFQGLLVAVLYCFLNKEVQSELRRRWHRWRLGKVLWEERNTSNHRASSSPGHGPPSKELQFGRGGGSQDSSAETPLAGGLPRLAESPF

Usually IC50 stands for the concentration needed to halve the response being measured. As to `O=C(Nc1nn[nH]n1)c1ccc(CN(C(=O)c2cc(-c3ccc(Cl)cc3)cs2)c2ccc(C3CCCCC3)cc2)cc1` [Example 565, 4-(4-Chlorophenyl)thiophene-2-carboxylic acid (4-cyclohexylphenyl)-[4-(2H-tetrazol-5-ylcarbamoyl)benzyl]amide], the IC50 was 948 nM.

For `O=C(Nc1nn[nH]n1)c1ccc(CN(CC(c2ccccc2)c2ccccc2)C(=O)c2cc(-c3ccc(Cl)cc3)cs2)cc1` [Example 566, 4-(4-Chlorophenyl)thiophene-2-carboxylic acid (2,2-diphenyl-ethyl)-[4-(2H-tetrazol-5-ylcarbamoyl)benzyl]amide], the IC50 is 855 nM.

With `O=C(Nc1nn[nH]n1)c1ccc(CN(C(=O)Nc2cccc(C(F)(F)F)c2)c2ccc(C3CCCCC3)cc2)cc1` [Example 567, 4-[1-(4-Cyclohexylphenyl)-3-(3-trifluoromethylphenyl)ureidomethyl]-N-(2H-tetrazol-5-yl)benzamide], the IC50 stood at 5 nM.

As for `O=C(Nc1nn[nH]n1)c1ccc(CN(C(=O)Nc2ccc(OC(F)(F)F)c(CO)c2)c2ccc(C3CCCCC3)cc2)cc1` [Example 568], the IC50 is 13 nM.

As for `Cc1ccc(NC(=O)N(Cc2ccc(C(=O)NCCS(=O)(=O)O)cc2)c2ccc(C(C)(C)C)cc2)cc1S(C)(=O)=O` [Example 569, 2-{4-[1-(4-tert-Butylphenyl)-3-(3-methylsulfonyl-4-methylphenyl)ureidomethyl]-benzoylamino}ethanesulfonic acid], the IC50 amounted to 1770 nM.

With `CC(C)(C)[C@H]1CC[C@H](N(Cc2ccc(C(=O)Nc3nn[nH]n3)s2)C(=O)Nc2ccc(OC(F)(F)F)cc2)CC1` [Example 578, 5-[1-(trans-4-tert-Butylcyclohexyl)-3-(4-trifluoromethoxyphenyl)ureidomethyl]thiophene-2-carboxylic acid (2H-tetrazol-5-yl)amide], the IC50 came out at 226 nM.

As for `N#Cc1ccc(NC(=O)N(Cc2ccc(C(=O)Nc3nn[nH]n3)cc2)c2ccc(C3=CCCCC3)cc2)cc1C(F)(F)F` [Example 599, 4-[3-(4-Cyano-3-trifluoromethylphenyl)-1-(4-cyclohex-1-enylphenyl)ureidomethyl]-N-(2H-tetrazol-5-yl)benzamide], the IC50 turned out to be 12 nM.

Turning to `O=C(Nc1nn[nH]n1)c1ccc(CN(C(=O)Nc2ccc(F)c(C(F)(F)F)c2)c2ccc(C3CCCCC3)cc2)cc1` [Example 600, 4-[1-(4-Cyclohexylphenyl)-3-(4-fluoro-3-trifluoromethylihenyl)ureidomethyl]-N-(2H-tetrazol-5-yl)benzamide], the IC50 was determined as 9 nM.

With `O=C(Nc1nn[nH]n1)c1ccc(CN(C(=O)Nc2ccc(Br)c(C(F)(F)F)c2)c2ccc(C3=CCCCC3)cc2)cc1` [Example 601, 4-[3-(4-Bromo-3-trifluoromethylphenyl)-1-(4-cyclohex-1-enylphenyl)ureidomethyl]-N-(2H-tetrazol-5-yl)benzamide], the IC50 turned out to be 17 nM.

On to `COc1cc(NC(=O)N(Cc2ccc(C(=O)Nc3nn[nH]n3)cc2)C2CCC(C(C)(C)C)CC2)cc(C(F)(F)F)c1` (stereo not drawn) [Example 602, 4-[1-(4-tert-Butylcyclohexyl)-3-(3-methoxy-5-trifluoromethylphenyl)ureidomethyl]-N-(2H-tetrazol-5-yl)benzamide], for which the IC50 stood at 26 nM.

With `CC(C)(C)[C@H]1CC[C@@H](N(Cc2ccc(C(=O)Nc3nn[nH]n3)cc2)C(=O)Nc2cc(C(F)(F)F)cc(C(F)(F)F)c2)CC1` [Example 603, 4-[3-(3,5-Bis(trifluoromethyl)phenyl)-1-(cis-4-tert-butylcyclohexyl)ureidomethyl]-N-(2H-tetrazol-5-yl)benzamide], the IC50 came to 26 nM.

On to `O=C(Nc1nn[nH]n1)c1ccc(CN(C(=O)Nc2ccc(OC(F)(F)F)cc2)C2CCC(C3CC3)CC2)cc1` (stereo not drawn) [Example 604, 4-[1-(4-Cyclopropylcyclohexyl)-3-(4-trifluoromethoxyphenyl)ureidomethyl]-N-(2H-tetrazol-5-yl)benzamide], for which the IC50 worked out at 222 nM.

With `O=C(O)CCNC(=O)c1ccc(CN(C(=O)Nc2cc(C(F)(F)F)cc(C(F)(F)F)c2)C2CCC3(CCCCC3)CC2)cc1` [Example 614, 3-{4-[3-(3,5-Bis(trifluoromethyl)phenyl)-1-spiro[5.5]undec-3-ylureidomethyl]benzoylamino}propionic acid], the IC50 turned out to be 129 nM.

On to `CC(C)(C)c1ccc(N(Cc2ccc(C(=O)Nc3nn[nH]n3)cc2)C(=O)Nc2nc3ccc(OC(F)(F)F)cc3s2)cc1` [Example 615, 4-[1-(4-tert-Butylphenyl)-3-(6-trifluoromethoxy-benzothiazol-2-yl)ureidomethyl]-N-(2H-tetra-5-yl)benzamide], for which the IC50 stood at 105 nM.

As for `CS(=O)(=O)c1ccc2nc(NC(=O)N(Cc3ccc(C(=O)Nc4nn[nH]n4)cc3)c3ccc(C4CCCCC4)cc3)sc2c1` [Example 616, 4-[1-(4-Cyclohexylphenyl)-3-(6-methylsulfonylbenzothiazol-2-yl)ureidomethyl]-N-(2H-tetrazol-5-yl)benzamide], the IC50 came out at 745 nM.

For `O=C(Nc1nn[nH]n1)c1ccc(CN(C(=O)Nc2nc3cc4c(cc3s2)OC(F)(F)C(F)(F)O4)c2ccc(C3CCCCC3)cc2)cc1` [Example 617], the IC50 was determined as 104 nM.

`O=C(O)CCNC(=O)c1ccc(CN(C(=O)c2cc(F)cc(C(F)(F)F)c2)C2CCC3(CCCCC3)CC2)cc1` [Example 618, 3-(4-{[(3-Fluoro-5-trifluoromethylbenzoyl)spiro[5.5]undec-3-yl-amino]methyl}benzoylamino)propionic acid]: the IC50 is 1070 nM.

On to `O=C(O)CCNC(=O)c1ccc(CN(C(=O)c2cc3ccccc3s2)C2CCC3(CCCCC3)CC2)cc1` [Example 619, 3-(4-{[(Benzo[b]thiophene-2-carbonyl)spiro[5.5]undec-3-yl-amino]methyl}benzoylamino)propionic acid], for which the IC50 is 479 nM.

Turning to `CS(=O)(=O)c1cccc(NC(=O)N(Cc2ccc(C(=O)Nc3nn[nH]n3)cc2)C2CCC3(CCCCC3)CC2)c1` [Example 620, 4-[3-(3-Methylsulfonylphenyl)-1-spiro[5.5]undec-3-ylureidomethyl]-N-(2H-tetrazol-5-yl)benzamide], the IC50 was found to be 542 nM.

For the molecule `CS(=O)(=O)c1ccc(OC(=O)N(Cc2ccc(C(=O)NCCC(=O)O)cc2)c2ccc(C3CCCCC3)cc2)cc1` [Example 621, 3-(4-{[(4-Cyclohexylphenyl)-(4-(methylsulfonyl)phenoxycarbonyl)amino]methyl}benzoylamino)propionic acid], the IC50 turned out to be 4600 nM.

For `CS(=O)(=O)c1ccc(OC(=O)N(Cc2ccc(C(=O)Nc3nn[nH]n3)cc2)c2ccc(C3CCCCC3)cc2)cc1` [Example 622], the IC50 came out at 4600 nM.

Turning to `CC(C)(C)C1CCC(N(Cc2ccc(C(=O)Nc3nn[nH]n3)cc2)C(=O)Oc2ccc(S(C)(=O)=O)cc2)CC1` (stereo not drawn) [Example 623], the IC50 came out at 2700 nM.

For the molecule `CC(C)(C)c1ccc(N(Cc2ccc(C(=O)Nc3nn[nH]n3)cc2)C(=O)Oc2ccc(S(C)(=O)=O)cc2)cc1` [Example 624], the IC50 amounted to 2000 nM.

For the molecule `CCCCN1C(=O)c2ccc(NC(=O)N(Cc3ccc(C(=O)Nc4nn[nH]n4)cc3)c3ccc(C4=CCCCC4)cc3)cc2C1=O` [Example 625, 4-[3-(N′-Butylphthalimid-4-yl)-1-(4-cyclohex-1-enylphenyl)ureidomethyl]-N-(2H-tetrazol-5-yl)benzamide], the IC50 came out at 7 nM.
